Laboratory results published in patent US9255100B2 (BAYER INTELLECTUAL PROPERTY GMBH, priority 2010, dated 2016).

These molecules were tested against T1, N-terminally GST-tagged human full length recombinant Mps-1 kinase (Homo sapiens, UniProt P33981) (assay: Mps-1 kinase assay (TR-FRET)). Details: Mps1 IC50 [nM], 10 μM ATP, 1 μM peptide substrate, 60 min at 22° C.
T1 construct: N-terminally GST-tagged human full length recombinant Mps-1 kinase; purchased Invitrogen, Karslruhe, Germany PV4071
T1 sequence (P33981 1-857): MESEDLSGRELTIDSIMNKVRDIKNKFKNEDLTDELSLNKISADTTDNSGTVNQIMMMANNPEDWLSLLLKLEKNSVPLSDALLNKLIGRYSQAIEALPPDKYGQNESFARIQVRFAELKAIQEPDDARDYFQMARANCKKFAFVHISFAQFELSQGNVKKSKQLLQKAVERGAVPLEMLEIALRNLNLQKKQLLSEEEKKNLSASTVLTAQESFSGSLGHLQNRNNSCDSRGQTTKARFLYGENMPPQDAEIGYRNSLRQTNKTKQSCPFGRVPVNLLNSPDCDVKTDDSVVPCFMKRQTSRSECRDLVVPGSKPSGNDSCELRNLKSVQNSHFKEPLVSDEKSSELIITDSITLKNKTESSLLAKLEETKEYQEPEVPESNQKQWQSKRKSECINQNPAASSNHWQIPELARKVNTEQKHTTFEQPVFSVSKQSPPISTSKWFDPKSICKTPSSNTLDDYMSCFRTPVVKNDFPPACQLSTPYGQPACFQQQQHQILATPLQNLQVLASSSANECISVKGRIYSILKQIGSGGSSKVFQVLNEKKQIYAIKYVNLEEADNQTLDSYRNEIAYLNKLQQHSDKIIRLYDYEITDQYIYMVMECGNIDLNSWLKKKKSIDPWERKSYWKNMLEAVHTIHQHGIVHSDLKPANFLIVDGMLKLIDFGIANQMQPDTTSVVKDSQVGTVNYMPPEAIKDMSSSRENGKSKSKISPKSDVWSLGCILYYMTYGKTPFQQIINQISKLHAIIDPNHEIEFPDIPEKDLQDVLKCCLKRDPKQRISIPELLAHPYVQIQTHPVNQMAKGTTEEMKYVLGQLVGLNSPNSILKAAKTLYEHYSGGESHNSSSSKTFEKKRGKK
Type: biochemical
How it was run: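 Inhibition of Mps-1 (N-terminal GST fusion, full length) toward a biotinylated peptide is read as Eu-to-XLent TR-FRET. Enzyme level, around 1 nM final, follows lot activity.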

Compared with Cc1cc(-c2cnc3c(NCC(C)(C)O)cc(Oc4cnn(C)c4)nn23)ccc1C(=O)NC1CC1 [Example 321, N-cyclopropyl-4-{8-[(2-hydroxy-2-methylpropyl)amino]-6-[(1-methyl-1H-pyrazol-4-yl)oxy]imidazo[1,2-b]pyridazin-3-yl}-2-methylbenzamide], Cc1cc(-c2cnc3c(NCC(C)(C)O)cc(Oc4ccncc4)nn23)ccc1C(=O)NC1CC1 [Example 332, N-cyclopropyl-4-{8-[(2-hydroxy-2-methylpropyl)amino]-6-(pyridin-4-yl-oxy)imidazo[1,2-b]pyridazin-3-yl}-2-methylbenzamide] is 45-fold higher in IC50: 0.6 nM for the first, 26.8 nM for the second.

Cc1cc(-c2cnc3c(NCC(C)(C)O)cc(Oc4ccc(N5CCN(C(=O)OC(C)(C)C)CC5)cc4)nn23)ccc1C(=O)NC1CC1 [Example 322, tert-butyl 4-[4-({3-[4-(cyclopropyl-carbamoyl)-3-methyl-phenyl]-8-[(2-hydroxy-2-methylpropyl)amino]imidazo[1,2-b]pyridazin-6-yl}oxy)phenyl]piperazine-1-carboxylate] and Cc1cc(-c2cnc3c(NCC4CN(C(=O)OC(C)(C)C)C4)cc(-c4ccccc4CO)nn23)ccc1C(=O)NC1CC1 [Example 339, tert-butyl 3-[({3-[4-(cyclopropylcarbamoyl)-3-methylphenyl]-6-[2-(hydroxy-methyl)phenyl]imidazo[1,2-b]pyridazin-8-yl}amino)methyl]azetidine-1-carboxylate] are within 1.5-fold of each other in IC50: 70.6 nM for the first, 95.9 nM for the second.

Going from Cc1cc(-c2cnc3c(NCCC(F)(F)F)cc(Nc4cccc(F)c4)nn23)ccc1C(=O)NC1CC1 [Example 324, N-cyclopropyl-4-{6-[(3-fluorophenyl)amino]-8-[(3,3,3-trifluoropropyl)amino]imidazo[1,2-b]pyridazin-3-yl}-2-methyl-benzamide] to Cc1cc(-c2cnc3c(NCCC(C)(C)O)cc(Oc4cccc(F)c4)nn23)ccc1C(=O)NC1CC1 [Example 325, N-cyclopropyl-4-{6-(3-fluorophenoxy)-8-[(3-hydroxy-3-methylbutyl)amino]imidazo[1,2-b]pyridazin-3-yl}-2-methyl-benzamide], the IC50 falls from 0.3 nM to 0.1 nM (3-fold).

Compared with Cc1cc(-c2cnc3c(NCC(C)(C)O)cc(OCc4ccccc4)nn23)ccc1C(=O)NC1CC1 [Example 326, 4-{6-(benzyloxy)-8-[(2-hydroxy-2-methylpropyl)amino]imidazo[1,2-b]pyridazin-3-yl}-N-cyclo-propyl-2-methylbenzamide], Cc1cc(-c2cnc3c(NCC(C)(C)O)cc(Sc4ccccn4)nn23)ccc1C(=O)NC1CC1 [Example 334, N-cyclopropyl-4-{8-[(2-hydroxy-2-methylpropyl)amino]-6-(pyridin-2-yl-sulfanyl)imidazo[1,2-b]pyridazin-3-yl}-2-methyl-benzamide] is 16-fold higher in IC50: 1.9 nM for the first, 30 nM for the second.

Cc1cc(-c2cnc3c(NCC4CCS(=O)(=O)C4)cc(Oc4cccc(F)c4)nn23)ccc1C(=O)NC1CC1 (stereo not shown) [Example 327, N-cyclopropyl-4-[8-{[(1,1-dioxidotetrahydro-thiophen-3-yl)methyl]amino}-6-(3-fluorophenoxy)imidazo[1,2-b]pyridazin-3-yl]-2-methylbenzamide] and Cc1cc(-c2cnc3c(NCC4CCOC4)cc(Oc4cccc(F)c4)nn23)ccc1C(=O)NC1CC1 (stereo not shown) [Example 328, N-cyclopropyl-4-{6-(3-fluorophenoxy)-8-[(tetra-hydrofuran-3-ylmethyl)amino]imidazo[1,2-b]pyridazin-3-yl}-2-methyl-benzamide] are the same in IC50: 0.3 nM for the first, 0.3 nM for the second.

Going from Cc1cc(-c2cnc3c(NCC4CC(=O)N(C)C4)cc(Oc4cccc(F)c4)nn23)ccc1C(=O)NC1CC1 (stereo not shown) [Example 329, N-cyclopropyl-4-[6-(3-fluorophenoxy)-8-{[(1-methyl-5-oxopyrrolidin-3-yl)methyl]amino}imidazo [1,2-b]pyridazin-3-yl]-2-methylbenzamide] to Cc1cc(-c2cnc3c(NCC4CC(F)(F)C4)cc(Oc4cccc(F)c4)nn23)ccc1C(=O)NC1CC1 [Example 330, N-cyclopropyl-4-[8-{[(3,3-difluorocyclobutyl)methyl]amino}-6-(3-fluoro-phenoxy)imidazo[1,2-b]pyridazin-3-yl]-2-methyl-benzamide], the IC50 rises from < 0.1 nM to 0.2 nM. The first is the more potent here.

Going from COCCNc1cc(NCC(C)(C)O)c2ncc(-c3ccc(C(=O)NC4CC4)c(C)c3)n2n1 [Example 331, N-cyclopropyl-4-{8-[(2-hydroxy-2-methylpropyl)amino]-6-[(2-methoxy-ethyl)amino]imidazo[1,2-b]pyridazin-3-yl}-2-methylbenzamide] to COc1ccc(C)c(Nc2cc(NCC(C)(C)O)c3ncc(-c4ccc(C(=O)NC5CC5)c(C)c4)n3n2)c1 [Example 349, N-cyclopropyl-4-{8-[(2-hydroxy-2-methylpropyl)amino]-6-[(5-methoxy-2-methylphenyl)amino]imidazo[1,2-b]pyridazin-3-yl}-2-methylbenzamide], the IC50 falls from 12.6 nM to 0.4 nM (31-fold). The second is the more potent here.

First: Cc1cc(-c2cnc3c(NCC(C)(C)O)cc(Sc4ccncc4)nn23)ccc1C(=O)NC1CC1 [Example 333, N-cyclopropl-4-{8-[(2-hydroxy-2-methylpropyl)amino]-6-(pyridin-4-yl-sulfanyl)imidazo[1,2-b]pyridazin-3-yl}-2-methyl-benzamide]
Second: Cc1cc(-c2cnc3c(NCC(C)(C)O)cc(Nc4ccc(Cl)cc4F)nn23)ccc1C(=O)NC1CC1 [Example 348, 4-{6-[(4-chloro-2-fluorophenyl)amino]-8-[(2-hydroxy-2-methylpropyl)amino]imidazo[1,2-b]pyridazin-3-yl}-N-cyclopropyl-2-methylbenzamide]
The IC50 of the first is 6.3-fold higher: 9.5 nM for the first, 1.5 nM for the second. The second is the more potent here.

Going from Cc1cc(-c2cnc3c(NCC(C)(C)O)cc(SC4CCOCC4)nn23)ccc1C(=O)NC1CC1 [Example 335, N-cyclopropyl-4-{8-[(2-hydroxy-2-methylpropyl)amino]-6-(tetrahydro-2H-pyran-4-ylsulfanyl)imidazo[1,2-b]pyridazin-3-yl}-2-methylbenzamide] to Cc1cc(-c2cnc3c(NCC(C)(C)O)cc(SC4CCCC4)nn23)ccc1C(=O)NC1CC1 [Example 336, 4-{6-(cyclopentylsulfanyl)-8-[(2-hydroxy-2-methylpropyl)amino]imidazo[1,2-b]pyridazin-3-yl}-N-cyclopropyl-2-methyl-benzamide], the IC50 falls from 3.6 nM to 1 nM (3.6-fold). The second is the more potent here.

Going from Cc1cc(-c2cnc3c(NCC(C)(C)O)cc(N4CCCCC4)nn23)ccc1C(=O)NC1CC1 [Example 337, N-cyclopropyl-4-{8-[(2-hydroxy-2-methylpropyl)amino]-6-(piperidin-1-yl)imidazo[1,2-b]pyridazin-3-yl}-2-methyl-benzamide] to Cc1cc(-c2cnc3c(NCCC(C)(C)O)cc(-c4ccccc4CO)nn23)ccc1C(=O)NC1CC1 [Example 341, N-cyclopropyl-4-{8-[(3-hydroxy-3-methylbutyl)amino]-6-[2-(hydroxy-methyl)phenyl]imidazo[1,2-b]pyridazin-3-yl}-2-methylbenzamide], the IC50 rises from 3.9 nM to 10.6 nM (2.7-fold).

Going from Cc1cc(-c2cnc3c(NCC4CNC4)cc(-c4ccccc4CO)nn23)ccc1C(=O)NC1CC1 [Example 338, 4-{8-[(azetidin-3-ylmethyl)amino]-6-[2-(hydroxymethyl)phenyl]imidazo[1,2-b]pyridazin-3-yl}-N-cyclo-propyl-2-methylbenzamide] to Cc1cc(-c2cnc3c(NCC4CCOCC4)cc(-c4ccccc4CO)nn23)ccc1C(=O)NC1CC1 [Example 346, N-cyclopropyl-4-{6-[2-(hydroxy-methyl)phenyl]-8-[(tetrahydro-2H-pyran-4-ylmethyl)amino]imidazo[1,2-b]pyridazin-3-yl}-2-methyl-benzamide], the IC50 falls from 83.9 nM to 1.6 nM (52-fold). The second is the more potent here.

First: Cc1cc(-c2cnc3c(NCC4CCC(C)(O)CC4)cc(-c4ccccc4CO)nn23)ccc1C(=O)NC1CC1 (stereo not shown) [Example 340, N-cyclopropyl-4-(8-{[(4-hydroxy-4-methylcyclohexyl)methyl]amino}-6-[2-(hydroxymethyl)phenyl]imidazo[1,2-b]pyridazin-3-yl)-2-methylbenzamide]
Second: Cc1cc(-c2cnc3c(NCC4CC(=O)N(C)C4)cc(-c4ccccc4CO)nn23)ccc1C(=O)NC1CC1 (stereo not shown) [Example 344, N-cyclopropyl-4-(6-[2-(hydroxy-methyl)phenyl]-8-{[(1-methyl-5-oxo-pyrrolidin-3-yl)methyl]amino}imidazo[1,2-b]pyridazin-3-yl)-2-methyl-benzamide]
The IC50 of the first is 7-fold lower: 3.3 nM for the first, 23 nM for the second.

Molecule Cc1cc(-c2cnc3c(NCCC#N)cc(Oc4cccc(F)c4)nn23)ccc1C(=O)NC1CC1 [Example 347, 4-{8-[(2-cyanoethyl)amino]-6-(3-fluorophenoxy)imidazo[1,2-b]pyridazin-3-yl}-N-cyclopropyl-2-methylbenzamide] has an IC50 of 0.1 nM.
